Residue numbers refer to the chain shown, from its start. “Also recorded” adds a separate entry of the source.
Assays:
H875Y-AR = target: T1, H875Y-AR (Homo sapiens, UniProt P10275, H875Y); assay: cell-based
T1 sequence (P10275 1-920 H875Y): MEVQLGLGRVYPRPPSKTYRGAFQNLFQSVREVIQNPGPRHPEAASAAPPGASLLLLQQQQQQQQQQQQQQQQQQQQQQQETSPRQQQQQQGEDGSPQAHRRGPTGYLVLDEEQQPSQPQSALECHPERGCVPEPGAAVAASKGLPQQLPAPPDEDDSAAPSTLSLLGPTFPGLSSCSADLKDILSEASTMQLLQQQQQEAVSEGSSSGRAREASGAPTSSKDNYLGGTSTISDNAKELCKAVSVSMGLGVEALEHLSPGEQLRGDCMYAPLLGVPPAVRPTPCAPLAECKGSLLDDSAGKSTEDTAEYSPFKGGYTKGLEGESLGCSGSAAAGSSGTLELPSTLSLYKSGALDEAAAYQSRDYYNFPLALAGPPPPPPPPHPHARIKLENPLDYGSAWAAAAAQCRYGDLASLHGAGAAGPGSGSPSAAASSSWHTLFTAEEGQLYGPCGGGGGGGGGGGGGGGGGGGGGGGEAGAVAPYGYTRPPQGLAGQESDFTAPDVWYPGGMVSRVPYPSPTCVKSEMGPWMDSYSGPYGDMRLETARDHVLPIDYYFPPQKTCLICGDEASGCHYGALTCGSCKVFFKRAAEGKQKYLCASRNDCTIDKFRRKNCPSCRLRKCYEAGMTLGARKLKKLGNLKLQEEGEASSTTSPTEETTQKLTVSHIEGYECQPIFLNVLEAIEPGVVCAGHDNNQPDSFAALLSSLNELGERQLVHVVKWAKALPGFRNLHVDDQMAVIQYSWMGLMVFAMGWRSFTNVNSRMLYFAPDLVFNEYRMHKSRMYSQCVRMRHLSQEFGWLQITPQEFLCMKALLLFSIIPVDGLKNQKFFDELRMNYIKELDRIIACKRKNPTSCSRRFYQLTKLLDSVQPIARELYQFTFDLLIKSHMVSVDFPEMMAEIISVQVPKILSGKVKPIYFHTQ

L882I-AR = target: T2, L882I-AR (Homo sapiens, UniProt P10275, L882I); assay: cell-based
T2 sequence (P10275 1-920 L882I): T1 sequence (P10275 1-920 H875Y) with Y875H, L882I

WT-AR = target: T3, WT-AR (Homo sapiens, UniProt P10275); settings: concentrations up to 500 nM
T3 sequence (P10275 1-920): T1 sequence (P10275 1-920 H875Y) with Y875H

C[C@]12CCC(=O)C=C1CC[C@@H]1[C@@H]2[C@@H](O)C[C@@]2(C)[C@H]1CC[C@]2(O)C(=O)CO [hydrocortisone]
EC50 (H875Y-AR): > 500 nM | EC50 (L882I-AR): > 500 nM | Transcriptional activation of wild-type AR (in words) (WT-AR): not activated; also recorded: did not exhibit any significant transcriptional activation
